Data taken from US20170240511A1 (MERCK SHARP & DOHME CORP., priority 2014, published 2017).

These compounds were tested against T1, Human HIF-PHD2 (Homo sapiens, UniProt Q9GZT9) (assay: HIF-PHD2 inhibition assay: time resolved fluorescence detection of HIF peptide hydroxylation). Conditions: FLAG-tagged full length PHD2; 0.2 μM 2-oxoglutarate, 0.5 μM HIF-1α peptide; 45 minutes at room temperature.
T1 construct: FLAG-tagged full length PHD2 expressed in and purified from baculovirus-infected Sf9 cells; FLAG; made in house; host or cells: baculovirus-infected Sf9 cells
Assay type: biochemical
Experimental: To each well of a 384-well plate, 1 μL of test compounds in DMSO (final concentration ranging from 0.3 nM to 10 μM) were added into 20 μl of assay buffer (50 mM Tris pH 7.4/0.01% Tween-20/0.1 mg/ml bovine serum albumin/10 μM ferrous sulfate/1 mM sodium ascorbate/20 μg/ml catalase) containing 0.15 μg/ml FLAG-tagged full length PHD2 expressed in and purified from baculovirus-infected Sf9 cells. After a 5 min preincubation at room temperature, the enzymatic reactions were initiated by the addition of 4 μL of substrates final concentrations of 0.2 μM 2-oxoglutarate and 0.5 μM HIF-la peptide biotinyl-[…] […] After incubation for 45 minutes at room temperature, the reactions were terminated by the addition of a 25 μL quench/detection mix to a final concentration of 1 mM ortho-phenanthroline, 0.1 mM EDTA, 0.5 nM anti-(His)6 LANCE reagent (Perkin-Elmer Life Sciences), 100 nM AF647-labeled streptavidin (Invitrogen), and 2 μg/ml (His)6-VHL complex {S. Tan Protein Expr. Purif. […] Inhibition of the catalytic activity of HIF-PHD1 and HIF-PHD3 can be determined similarly, except for HIF-PHD3, final concentrations of 4 μM 2-oxoglutarate is used during the reaction.

T1 sequence (Q9GZT9 whole entry): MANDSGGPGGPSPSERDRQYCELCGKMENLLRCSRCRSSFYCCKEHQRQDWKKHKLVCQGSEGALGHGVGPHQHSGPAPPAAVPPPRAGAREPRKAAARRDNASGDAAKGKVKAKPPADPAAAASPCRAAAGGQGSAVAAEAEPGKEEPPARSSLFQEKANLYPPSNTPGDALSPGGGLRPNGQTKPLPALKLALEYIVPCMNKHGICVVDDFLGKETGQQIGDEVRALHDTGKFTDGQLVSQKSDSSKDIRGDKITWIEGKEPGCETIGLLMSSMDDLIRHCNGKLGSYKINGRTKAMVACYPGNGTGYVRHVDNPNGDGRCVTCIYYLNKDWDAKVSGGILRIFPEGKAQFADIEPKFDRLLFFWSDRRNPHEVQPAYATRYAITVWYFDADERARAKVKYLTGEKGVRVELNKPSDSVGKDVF

Row | Structure (SMILES) | IC50
1 | O=C(N[C@H]1C[C@@H]1C(=O)O)c1cc(O)c(C(=O)NC(c2ccccc2)c2ccccc2)cn1 [Example 15, (1S,2S)-2-(5-(benzhydrylcarbamoyl)-4-hydroxypicolinamido)cyclopropanecarboxylic acid] | 6.69 nM
2 | O=C(O)c1cnn(-c2cc(O)c(C(=O)NC(c3ccccc3)c3ccccc3)cn2)c1 [Example 1, 1-(5-(Benzhydrylcarbamoyl)-4-hydroxypyridin-2-yl)-1H-pyrazole-4-carboxylic acid] | 0.875 nM
3 | O=C(N[C@@H]1C[C@H]1C(=O)O)c1cc(O)c(C(=O)NC(c2ccccc2)c2ccccc2)cn1 [Example 16, (1R,2R)-2-(5-(benzhydrylcarbamoyl)-4-hydroxypicolinamido)cyclopropanecarboxylic acid] | 6.55 nM
4 | O=C(N[C@H]1C[C@H](C(=O)O)C1)c1cc(O)c(C(=O)NC(c2ccccc2)c2ccccc2)cn1 [Example 3] | 1.64 nM
5 | CCOC(=O)[C@@H]1C[C@H]1NC(=O)c1cc(O)c(C(=O)NC(c2ccccc2)c2ccccc2)cn1 [Example 7, (1R,2R)-ethyl 2-(5-(benzhydrylcarbamoyl)-4-hydroxypicolinamido)cyclopropanecarboxylate] | 37.3 nM
6 | O=C(NCC1(C(=O)O)CC1)c1cc(O)c(C(=O)NC(c2ccccc2)c2ccccc2)cn1 [Example 11, 1-((5-(benzhydrylcarbamoyl)-4-hydroxypicolinamido)methyl)cyclopropanecarboxylic acid] | 5.24 nM
7 | CCOC(=O)[C@H]1C[C@@H]1NC(=O)c1cc(O)c(C(=O)NC(c2ccccc2)c2ccccc2)cn1 [Example 6, (1S,2S)-ethyl 2-(5-(benzhydrylcarbamoyl)-4-hydroxypicolinamido)cyclopropanecarboxylate] | 89.1 nM
8 | CCOC(=O)C(C)(C)CNC(=O)c1cc(O)c(C(=O)NC(c2ccccc2)c2ccccc2)cn1 [Example 5, ethyl 3-(5-(benzhydrylcarbamoyl)-4-hydroxypicolinamido)-2,2-dimethylpropanoate] | 276 nM
9 | O=C(NC12CC(C(=O)O)(C1)C2)c1cc(O)c(C(=O)NC(c2ccccc2)c2ccccc2)cn1 [Example 17, 3-(5-(benzhydrylcarbamoyl)-4-hydroxypicolinamido)bicyclo[1.1.1]pentane-1-carboxylic acid] | 23.4 nM
10 | CCOC(=O)CCNC(=O)c1cc(O)c(C(=O)NC(c2ccccc2)c2ccccc2)cn1 [Example 2, ethyl 3-(5-(benzhydrylcarbamoyl)-4-hydroxypicolinamido)propanoate] | 92.9 nM
11 | CCOC(=O)C1(CNC(=O)c2cc(O)c(C(=O)NC(c3ccc(Cl)cc3)c3ccc(Cl)cc3)cn2)CC1 [Example 5, ethyl 1-((5-((bis(4-chlorophenyl)methyl)carbamoyl)-4-hydroxypicolinamido)methyl) cyclopropanecarboxylate] | 184 nM

Results, then the compound that gave them:

Row | IC50 | Structure (SMILES)
12 | 1.89 nM | CC(CNC(=O)c1cc(O)c(C(=O)NC(c2ccccc2)c2ccccc2)cn1)C(=O)O (stereo not shown) [Example 10, 3-(5-(benzhydrylcarbamoyl)-4-hydroxypicolinamido)-2-methylpropanoic acid]
13 | 1.02 nM | O=C(O)CCCNC(=O)c1cc(O)c(C(=O)NC(c2ccccc2)c2ccccc2)cn1 [Example 12, 4-(5-(benzhydrylcarbamoyl)-4-hydroxypicolinamido)butanoic acid]
14 | 136 nM | COC(=O)C(C)CNC(=O)c1cc(O)c(C(=O)NC(c2ccccc2)c2ccccc2)cn1 (stereo not shown) [Example 3, methyl 3-(5-(benzhydrylcarbamoyl)-4-hydroxypicolinamido)-2-methylpropanoate]
15 | 3.61 nM | CC(C)(CNC(=O)c1cc(O)c(C(=O)NC(c2ccccc2)c2ccccc2)cn1)C(=O)O [Example 14, 3-(5-(benzhydrylcarbamoyl)-4-hydroxypicolinamido)-2,2-dimethylpropanoic acid]
16 | 1.28 nM | O=C(NCC(O)C(=O)O)c1cc(O)c(C(=O)NC(c2ccccc2)c2ccccc2)cn1 (stereo not shown) [Example 13, 3-(5-(benzhydrylcarbamoyl)-4-hydroxypicolinamido)-2-hydroxypropanoic acid]
